Read-outs that look alike come from different tables or passages of the source. Blank lines part the entries; values can stand above or below the compound they belong to.
How the values were obtained:
P. aeruginosa PAO1 [1] = assay: Minimal inhibitory concentration (EUCAST), with or without 660 nm irradiation; type: cell-based, Pseudomonas aeruginosa; details: Pseudomonas aeruginosa, PAO1, light or radiation study, 18 h
Description: (§1) Acinetobacter baumannii DSM30011, Bacillus subtilis 168, Pseudomonas aeruginosa PA14, P. aeruginosa PAO1, Staphylococcus aureus Mu50, S. aureus Newman and S. aureus USA300 were all grown in MHB-CA at 37°C with an agitation of 180 rpm. Candida albicans SC5314 was grown in yeast extract peptone dextrose broth at 35°C with an agitation of 180 rpm.
(§2) Minimal inhibitory concentrations (MICs) for selected bacteria were investigated according to the EUCAST guidelines. Serial dilutions of the compounds, photosensitizers and aminoglycosides were made in MHB-CA in 384-well plates. Stationary-phase cells were diluted in MHB-CA to have a final concentration of 5.5 × 10^5 CFU/mL. Samples were incubated in the dark for 20 minutes at 37°C and either irradiated at 660 nm for 30 minutes with a LED device or kept in the dark. Irradiated samples received a total of 168 mJ/mm^2. Plates were then incubated at 37°C for 18 hours and MICs were evaluated visually. Triplicates were done and the synergy, or fractional inhibitory concentration (FIC), was calculated according to Doern et al., 2014: FIC = (MIC of AB)/(MIC of A) + (MIC of AB)/(MIC of B) [formula]

P. aeruginosa PA14 [2] = assay: as above; type: cell-based, Pseudomonas aeruginosa; details: Pseudomonas aeruginosa, PA14, light or radiation study, 18 h
Description: as §1, §2

P. aeruginosa PAO1 [3] = assay: Antibacterial photodynamic therapy on biofilm cells; type: cell-based, Pseudomonas aeruginosa; details: - irradiation
Text: (§3) Compounds Neo-Ce6 and Tobra-Ce6 caused strong drop in survival for biofilms of A. baumannii […], P. aeruginosa species and S. aureus Mu50. […] Tobra-Ce6 had its strongest effect on A. baumannii DSM30011 with more than 4 log10 CFU/mL drop in survival and a drop of 1.7 log10 CFU/mL in P. aeruginosa PA14. Table 2: aPDT results for biofilm cells expressed in drop in the log10 CFU/mL compared to controls.

P. aeruginosa PA14 [4] = assay: as above; type: cell-based, Pseudomonas aeruginosa; details: - irradiation
Text: as §3

S. aureus USA300 [5] = assay: Minimal inhibitory concentration (EUCAST), with or without 660 nm irradiation; type: cell-based; details: Staphylococcus aureus, USA300, light or radiation study, 18 h, aminoglycoside alone, irradiation state not given
Description: as §1, §2

S. aureus Mu50 [6] = assay: as above; type: cell-based; details: Staphylococcus aureus, MU50, light or radiation study, 18 h
Description: as §1, §2

A. baumannii DSM30011 [7] = assay: as above; type: cell-based, Acinetobacter baumannii; details: Acinetobacter baumannii, DSM30011, light or radiation study, 18 h
Description: as §1, §2

S. aureus Newman [8] = assay: Antibacterial photodynamic therapy on planktonic cells (CFU count); type: cell-based, Staphylococcus aureus; details: non-irradiated samples (Figure 3d)
Description: as §1
(§4) Cells were brought to stationary phase by incubating them in MHB-CA for at least 18 hours at 37°C with 180 rpm and diluted to an optical density of 1.0 just before the experiment. Cells were incubated for 20 minutes with either the compounds, photosensitizers alone, or aminoglycosides alone. Unless stated otherwise, a concentration of 10 µM was used for all experiments and samples were irradiated for 30 minutes at 660 nm with the Solis-660C lamp from ThorLabs, receiving a total of 5 J/mm^2. After illumination, cells were washed with phosphate-buffered saline (PBS) 1X, serially diluted and plated on Mueller-Hinton agar. The next day, colony forming units (CFUs) were counted.

S. aureus Mu50 [9] = assay: as above; type: cell-based, Staphylococcus aureus; details: non-irradiated samples (Figure 3b)
Description: as §1, §4

S. aureus Newman [10] = assay: Minimal inhibitory concentration (EUCAST), with or without 660 nm irradiation; type: cell-based, Staphylococcus aureus; details: Staphylococcus aureus, NEWMAN, light or radiation study, 18 h
Description: as §1, §2

B. subtilis 168 = assay: as above; type: cell-based, Bacillus subtilis; details: Bacillus subtilis, 168, light or radiation study, 18 h
Description: as §1, §2

[11] = tested on: S. aureus USA300 persister cells; assay: Antibacterial photodynamic therapy on persister cells; type: cell-based, Staphylococcus aureus; details: persister cells (6 hours, 2 mM neomycin); aPDT at 10 µM, 5 J/mm^2 (Figure 6a)
Description: Persister plateau and AG concentration varied from one species to another. In S. aureus USA300, a stable plateau was obtained following 6 hours of incubation with 2 mM of neomycin. […] This control is crucial to make sure that a persister state has been achieved. […] As there are no significant differences between irradiated and non-irradiated samples, however, the production of singlet oxygen may not be the factor leading to cell death. In S. aureus Newman, cells were treated for 24 hours with 1 mM of neomycin. […] Although this synergy does exist, like in S. aureus USA300, there is no significant difference in survival for irradiated and non-irradiated samples, except for Ce6.

S. aureus USA300 [12] = assay: Antibacterial photodynamic therapy on biofilm cells; type: cell-based, Staphylococcus aureus; details: - irradiation
Text: as §3

S. aureus Newman [13] = assay: as above; type: cell-based, Staphylococcus aureus; details: - irradiation
Text: as §3

S. aureus Mu50 [14] = assay: as above; type: cell-based, Staphylococcus aureus; details: - irradiation
Text: as §3

K. pneumoniae LM21 = assay: Minimal inhibitory concentration (EUCAST), with or without 660 nm irradiation; type: cell-based; details: Klebsiella pneumoniae, LM21, light or radiation study, 18 h
Description: as §2

E. coli KanR = assay: as above; type: cell-based; details: Escherichia coli, light or radiation study, 18 h
Description: as §2

E. coli pET-29 = assay: as above; type: cell-based; details: Escherichia coli, PET29, light or radiation study, 18 h; aminoglycoside alone, irradiation state not given
Description: as §2

A. baumannii DSM30011 [15] = assay: Antibacterial photodynamic therapy on biofilm cells; type: cell-based, Acinetobacter baumannii; details: - irradiation
Text: as §3

C. albicans SC5314 = assay: Minimal inhibitory concentration, with or without 660 nm irradiation; type: cell-based; details: Candida albicans, SC5314, light or radiation study, 18 h
Description: as §1, §2

P. aeruginosa PAO1 [16] = assay: Antibacterial photodynamic therapy on planktonic cells (CFU count); type: cell-based; details: Pseudomonas aeruginosa, PAO1, light or radiation study, aminoglycoside alone, Figure 5d (without irradiation), read-out: drop of survival
Description: as §1, §4

[17] = aminoglycoside alone, irradiation state not given, read-out: MIC

Structure (SMILES): NC[C@@H]1O[C@H](O[C@H]2[C@@H](O)[C@H](O[C@@H]3[C@@H](O)[C@H](N)C[C@H](N)[C@H]3O[C@H]3O[C@H](CN)[C@@H](O)[C@H](O)[C@H]3N)O[C@@H]2CO)[C@H](N)[C@@H](O)[C@@H]1O [Neomycin, neomycin]
MIC (P. aeruginosa PAO1 [1]): 16 µM | MIC (P. aeruginosa PA14 [2]): 4 µM | drop in the log10 CFU/mL compared to controls (P. aeruginosa PAO1 [3]): 0.28 log10 CFU/mL | drop in the log10 CFU/mL compared to controls (P. aeruginosa PA14 [4]): 0.01 log10 CFU/mL | MIC (S. aureus USA300 [5]): 4 µM | MIC (S. aureus Mu50 [6]): > 512 µM | MIC (A. baumannii DSM30011 [7]): 8 µM | drop in CFUs (in words) (S. aureus Newman [8]): does not lead to significantly less survival | drop in CFUs (in words) (S. aureus Mu50 [9]): does not lead to significantly less survival | MIC (S. aureus Newman [10]): 8 µM | MIC (B. subtilis 168): 0.4 µM | persister cell survival (in words) [11]: no significant drop in survival | drop in the log10 CFU/mL compared to controls (S. aureus USA300 [12]): 0.16 log10 CFU/mL | drop in the log10 CFU/mL compared to controls (S. aureus Newman [13]): -0.07 log10 CFU/mL | drop in the log10 CFU/mL compared to controls (S. aureus Mu50 [14]): 0.18 log10 CFU/mL | MIC (K. pneumoniae LM21): 2 µM | MIC (E. coli KanR): > 512 µM | MIC (E. coli pET-29): 128 to 256 µM | drop in the log10 CFU/mL compared to controls (A. baumannii DSM30011 [15]): 1.33 log10 CFU/mL | MIC (C. albicans SC5314): > 512 µM

MIC (P. aeruginosa PAO1 [1]; [17]): 0.5 to 1 µM | MIC (P. aeruginosa PA14 [2]; [17]): 1 to 2 µM | MIC (S. aureus USA300 [5]): 4 µM | MIC (S. aureus Mu50 [6]; [17]): > 512 µM | MIC (A. baumannii DSM30011 [7]; [17]): 4 to 8 µM | MIC (S. aureus Newman [10]; [17]): 4 µM
Structure (SMILES): NC[C@H]1O[C@H](O[C@H]2[C@H](O)[C@@H](O[C@H]3O[C@H](CO)[C@@H](O)[C@H](N)[C@H]3O)[C@H](N)C[C@@H]2N)[C@H](N)C[C@@H]1O [Tobramycin, tobramycin]
drop in the log10 CFU/mL compared to controls (P. aeruginosa PAO1 [3]): 0.39 log10 CFU/mL | drop in the log10 CFU/mL compared to controls (P. aeruginosa PA14 [4]): 0.79 log10 CFU/mL | drop in the log10 CFU/mL compared to controls (S. aureus USA300 [12]): 0.26 log10 CFU/mL | drop in the log10 CFU/mL compared to controls (S. aureus Newman [13]): 0.25 log10 CFU/mL | drop in the log10 CFU/mL compared to controls (S. aureus Mu50 [14]): -0.02 log10 CFU/mL | log reduction at 10 µM (P. aeruginosa PAO1 [16]): ~2.3 | drop in the log10 CFU/mL compared to controls (A. baumannii DSM30011 [15]): 0.93 log10 CFU/mL

From patent EP4389827A1, “AMINOGLYCOSIDE-LINKED PHOTOSENSITIZERS” (Centre National de la Recherche Scientifique, priority 2022, dated 2024)
